Measured values as given in paper PMC10362908 (2023).

Experiments:
Conditions in all cases: Na+ 10 mM; Mg2+ carried over from 12 mM annealing buffer; 5 mM TRIS pH 7.0, 20 °C; 0.5 µM DNA, 160 µM PIC; super aggregate
[1] = tested on: AT + AF (DX-tile) (DNA, junction, amino modifier C6 dT at 19 of strand 5) TCAGAAGAACAAAAAAAAAA/ACGCATTTGTCGTTCTTCTGATGACCTTGCA/GTACACCTCGCTTTTTTTTTTGTGTCTGCAA/TTGCAGACACGACAAATGCGT/TGCAAGGTCCGCGAGGTGTAC; assay: absorbance (580 nm aggregate peak, AF red shift)
[2] = tested on: GC + AF (DX-tile) (DNA, junction, amino modifier C6 dT at 19 of strand 5) TCAGAAGAACGCGCGCGCGC/ACGCATTTGTCGTTCTTCTGATGACCTTGCA/GTACACCTCGAGCGCGCGCGCTTGTCTGCAA/TTGCAGACAAGACAAATGCGT/TGCAAGGTCCGCGAGGTGTAC; assay: absorbance (580 nm aggregate peak, AF red shift)
[3] = tested on: dsDNA + AF (DNA, duplex, amino modifier C6 dT at 19 of strand 1) TGCAAGGTCCGCGAGGTGTAC/GTACACCTCGCGGACCTTGCA; assay: absorbance (580 nm aggregate peak, AF red shift)
[4] = tested on: ssDNA + AF (Strand 5-AF) (DNA, single strand, amino modifier C6 dT at 19) TGCAAGGTCCGCGAGGTGTAC; assay: absorbance (580 nm aggregate peak, AF red shift)
[5] = tested on: AT (DX-tile) (DNA, junction) TCAGAAGAACAAAAAAAAAA/ACGCATTTGTCGTTCTTCTGATGACCTTGCA/GTACACCTCGCTTTTTTTTTTGTGTCTGCAA/TTGCAGACACGACAAATGCGT/TGCAAGGTCCGCGAGGTGTAC; assay: fluorescence emission (523 nm excitation), aggregate formation
[6] = tested on: GC (DX-tile) (DNA, junction) TCAGAAGAACGCGCGCGCGC/ACGCATTTGTCGTTCTTCTGATGACCTTGCA/GTACACCTCGAGCGCGCGCGCTTGTCTGCAA/TTGCAGACAAGACAAATGCGT/TGCAAGGTCCGCGAGGTGTAC; assay: as above
[7] = tested on: dsDNA (DNA, duplex) TGCAAGGTCCGCGAGGTGTAC/GTACACCTCGCGGACCTTGCA; assay: as above
[8] = tested on: ssDNA (DNA, single strand) TGCAAGGTCCGCGAGGTGTAC; assay: as above

- binding [1]: yes
- binding [2]: yes
- binding [3]: yes
- binding [4]: yes
- binding [5]: yes
- binding [6]: yes
- binding [7]: yes
- binding [8]: yes
SMILES: CCN1C(=Cc2ccc3ccccc3[n+]2CC)C=Cc2ccccc21
